Values joined by “and” are separate entries in the source; they are usually repeats but may differ in a detail not shown here. Identical values can stand only once.
Legend:
L1210 leukemia = test: Antitumor activity vs transplantable L1210 leukemia (ip) in mice; format: in vivo, mouse; settings: for Max % T/C: dying mice only; for OD (optimum dose): optimum dose from the L1210 test
[1] = tested on: L1210/CDDP (cisplatin resistant line of L1210 leukemia); test: Antitumor activity vs cisplatin-resistant L1210 leukemia (L1210/CDDP) in mice; format: in vivo, mouse
B16 melanoma [2] = test: Antitumor activity vs ip B16 melanoma in mice; format: in vivo, mouse; set-up: O.D.: unit not given here; settings: for O.D.: ip B16 (3×; 9×); for Max. % T/C: ip B16 (3×; 9×): q4d × 3 or qd 1-9, ip, dying mice only; for Ratio of Max. % T/C Complex/cDDP: ip B16, relative to concomitant cisplatin
C26 carcinoma = test: Antitumor activity vs ip C26 (colon 26) carcinoma in mice; format: in vivo, mouse; set-up: O.D.: unit not given here; settings: for O.D.: ip C26 (2×; 4×); for Max. % T/C: ip C26 (2×; 4×): q3d × 2 or qd 1-4, ip, dying mice only
M109 carcinoma = test: Antitumor activity vs ip M109 (Madison 109 lung) carcinoma in mice; format: in vivo, mouse; set-up: O.D.: unit not given here; settings: for O.D.: ip M109 (2×; 4×); for Max. % T/C: ip M109 (2×; 4×): q3d × 2 or qd 1-4, ip, dying mice only
B16 melanoma [3] = test: Antitumor activity vs B16 melanoma, sc tumor implant with iv drug dosing; format: in vivo, mouse
Text: ^b Sc tumor implant with iv drug dosing.
The parent line of L1210 leukemia (L1210) was maintained in DBA/2 mice by ip transplantation of 10^5 cells at weekly intervals. […] B16 malenoma (B16) was maintained by sc transplant in C57BL/6 mice every two weeks. Madison 109 lung carcinoma (M109) and colon 26 carcinoma (C26) were maintained by sc transplant in BALB/c mice every two weeks.
The level and route of tumor inoculum, host, group size, and drug treatment schedule and route for each tumor type are summarized below in Table 6. Each complex was evaluated initially against L1210 at 4 dose levels per schedule selected on the basis of lethality data provided by the Wadley Institute. In subsequent experiments with the other tumors the complexes were evaluated at a minimum of 3 dose levels selected on the basis of maximum tolerated levels in the L1210 experiments. Cisplatin-treated groups and a saline-treated (or untreated) tumor control group were included in each experiment.
The L1210 experiments were terminated on Day 30 whereas the B16, C26 and M109 experiments were terminated on Day 60 (some C26 experiments were terminated on Day 75). Mice alive at the termination day were autopsied and considered cured if no tumor was visible. […] A complex was considered active if it produced a % T/C value ≥125.

BDF1 mice [4] = test: Nephrotoxicity: effect on blood urea nitrogen (BUN) in BDF1 mice; settings: for BUN↑, Mouse: effect relative to cisplatin
BDF1 mice [5] = test: Deaths (D.14) in the BUN test in BDF1 mice; format: in vivo, mouse
Text: The toxicity studies were done in male BDF1 mice (25-29 gm) and castrated male Fitch ferrets (1-1.5 kg).
Groups of 40-50 mice/experiment were bled from the retro-orbital plexus and individual BUN values determined by a modified urease method using a Centrifichem System 400. The test complex, or saline for controls, was given at several dose levels (5-10 mice/dose) in single ip injections. The highest dose of the complex usually corresponded to its LD50 value or 1.5 times its optimal single dose in the L1210 experiment. At least two lower doses were included to evaluate dose-related effects. The BUN values were measured 4 and 7 days after dosing. BUN values ≥30 mg% were considered indicative of drug-induced nephrotoxicity.

BDF1 mice [6] = test: Single-dose ip LD50 in BDF1 mice; format: in vivo, mouse; settings: 30 days observation
Experimental: Single-dose ip LD50 values were determined in BDF1 mice for the indicated complexes.

Solubility (Table 3) = settings: medium not given
[7] = Solubility stated in the preparation examples
[8] = L1210, Day 1, in intralipid plus ethanol
[9] = L1210, single dose Day 1, ip, (a), (b) determinations
[10] = L1210, single dose Day 1, ip, dose giving the Max % T/C, same order

Row | Compound | O.D. (optimal dose) (L1210 leukemia; L1210, QD 1 → 5, ip) | Max % T/C (L1210 leukemia; L1210, QD 1 → 5, ip) | Max % T/C (L1210 leukemia; [9]) | O.D. (optimal dose) (L1210 leukemia; [10]) | OD (optimum dose) (L1210 leukemia) | O.D. (B16 melanoma [2]) | Max. % T/C (B16 melanoma [2]) | O.D. (C26 carcinoma) | Max. % T/C (C26 carcinoma) | O.D. (M109 carcinoma) | Max. % T/C (M109 carcinoma) | BUN↑, Mouse (BDF1 mice [4]) | Ratio of Max. % T/C Complex/cDDP (B16 melanoma [2]) | LD50 (BDF1 mice [6]) | Solubility (Solubility (Table 3)) | Solubility in water [7] | also measured
1 | N[C@@H]1CCCC[C@H]1N.O=C([O-])C(F)(F)C(F)(F)C(F)(F)F.O=C([O-])C(F)(F)C(F)(F)C(F)(F)F.[Pt+2] (relative stereo) [Example 3, bis-heptafluorobutyrato trans(-)-1,2-diaminocyclohexane platinum(II)] | 3 mg/kg/inj | 186% | 157% | 48 mg/kg/inj | 24 mg/kg/ip | 1 | 182% | 16 | 119% | 12 and 8 | 118% and 103% | 0 | – | – | – | – | O.D. (optimal dose) (L1210 leukemia; [8]): 24 mg/kg/inj and 18 mg/kg/inj; Max % T/C (L1210 leukemia; [8]): 214% and 200%; Cures/total (L1210 leukemia; L1210, QD 1 → 5, ip): 2/6; O.D. (optimal dose) ([1]; Day 1, in intralipid plus ethanol): 12 mg/kg/inj; Max % T/C ([1]; Day 1, in intralipid plus ethanol, dying mice only): 195%; O.D. (B16 melanoma [3]): 4; Max. % T/C (B16 melanoma [3]; dying mice only): 164%; Incidence of BUN > 30 mg % (BDF1 mice [4]; 24 mg/kg ip): 0/3; Incidence of BUN > 30 mg % (BDF1 mice [4]; 36 mg/kg ip): 0/2; Deaths D.14 (BDF1 mice [5]; 24 mg/kg ip): 2/5; Deaths D.14 (BDF1 mice [5]; 36 mg/kg ip): 3/5
2 | hydroxymethylphosphonato trans(-)-1,2-diaminocyclohexane platinum(II) [Example 12] | 3 mg/kg/inj | 293% | 221% and 275% | 24 mg/kg/inj and 21 mg/kg/inj | 24 mg/kg/ip | 4 | 229% | 24 | 125% | 18 | 135% | 0 | 1.08 | 79 mg/kg/ip | 3000 µg/mL | soluble | Cures/total ([1]; Day 1): 2/6; O.D. (optimal dose) ([1]; Day 1): 14 mg/kg/inj; Max % T/C ([1]; Day 1, dying mice only): 340%; Ratio of Max. % T/C Complex/cDDP (C26 carcinoma; ip C26, relative to concomitant cisplatin): .87; Ratio of Max. % T/C Complex/cDDP (M109 carcinoma; ip M109, relative to concomitant cisplatin): .95; Incidence of BUN > 30 mg % (BDF1 mice [4]; 44 mg/kg ip): 1/6; Incidence of BUN > 30 mg % (BDF1 mice [4]; 59 mg/kg ip): 0/4; Deaths D.14 (BDF1 mice [5]; 44 mg/kg ip): 6/10; Deaths D.14 (BDF1 mice [5]; 59 mg/kg ip): 9/10; Deaths D.14 (BDF1 mice [5]; 79 mg/kg ip): 10/10; Solubility in methanol ([7]; methanol): soluble
3 | NCC1(N)CCCCCCC1.O=C([O-])CP(=O)([O-])[O-].[H+].[Pt+2] [Example 15, phosphonoacetato 1-aminomethylcyclooctylamine platinum(II)] | 10 mg/kg/inj | 193% | 236% | 80 mg/kg/inj | 80 mg/kg/ip | 3 | 147% | – | – | – | – | < | .77 | 137 mg/kg/ip | 7000 µg/mL | very water-soluble | Incidence of BUN > 30 mg % (BDF1 mice [4]; 77 mg/kg ip): 0/10; Incidence of BUN > 30 mg % (BDF1 mice [4]; 103 mg/kg ip): 2/10; Incidence of BUN > 30 mg % (BDF1 mice [4]; 137 mg/kg ip): 7/10; Deaths D.14 (BDF1 mice [5]; 77 mg/kg ip): 0/10; Deaths D.14 (BDF1 mice [5]; 103 mg/kg ip): 3/10; Deaths D.14 (BDF1 mice [5]; 137 mg/kg ip): 9/10
